# Test results from article PMC5034043 (The Journal of Biological Chemistry, 2016).
# Read-outs that look alike come from different tables or passages of the source.
# What was measured:
# X. laevis tadpoles = test: In vivo photolabeling in tadpoles (recovery after UV irradiation); set-up: species or system Xenopus laevis; settings: 12 μM for 30 min, then 10 min low intensity UV irradiation
# Procedure: Tadpoles were then exposed to 10 min of low intensity UV irradiation or were maintained as a 10-min non-UV irradiation control.
# Behavioral activity was initially determined in albino X. laevis tadpoles (stages 45–47) as described previously ([29], [33]). All animal care and experimental procedures involving X. laevis tadpoles were carried out according to a protocol approved by the IACUC of the University of Pennsylvania.
# [1] = buffer
# synaptosomal proteome = assay type: binding, mouse
# Procedure: (§1) Synaptosomes were resuspended to 1 mg of protein/ml in HEPES buffer medium (in mM: 140 NaCl, 5 KCl, 5 NaHCO3, 1.2 NaH2PO4, 1 MgCl2, 10 glucose, and 10 HEPES (pH 7.4)). […] The samples were allowed to equilibrate for 5 min before being transferred to a parafilm-sealed 1-mm path length quartz cuvette. The sample was then irradiated for 20 min at a peak bandwidth of 350 nm (Rayonet RPR-3500 lamp) ∼6 cm from the light source. Non-irradiated samples were left in the dark at ambient temperature (22–25 °C) for 20 min. All remaining procedures were conducted with restricted light exposure.
# (§2) To 750 μg of photolabeled or control synaptosome samples, 40 μl of 10% SDS and 2 μl of 5 mM DTT in water were added. Samples were then vortexed, heated for 10 min at 65 °C, and then briefly cooled. Final concentrations of 150 μM azide-biotin (Click Chemistry Tools), 2 mM tris(3-hydroxypropyltriazolylmethyl)amine (Sigma), 1 mM ascorbic acid (Sigma), and 1 mM CuSO4·5H2O (Sigma) were added to each sample and vortexed vigorously. The samples were left in the dark at ambient temperature (22–25 °C) for 1 h with mild agitation. Directly to each sample 4× volume chilled methanol, 1.5× chilled chloroform, and 3× chilled double distilled H2O were added. Samples were vortexed vigorously and centrifuged at 1,400 × g for 30 min at 4 °C. Both liquid layers were carefully removed, and the protein pellet was washed with 2 ml of 1:1 (v/v) chilled methanol/chloroform. Samples were centrifuged at 3,500 × g for 30 min at 4 °C. Protein pellets were briefly air-dried before further processing.
# 750 μg of biotin-conjugated protein sample was resuspended in 500 μl of 25 mM NH4HCO3 and 6 M urea in water. Next, 150 μl of 5% Triton X-100 in water, 50 μl of 10% SDS in water, and 1.5 μl of 0.5 M DTT were added. The samples were heated for 15 min at 65 °C. After briefly cooling, 14 μl of 0.5 M iodoacetamide in water was added, and the sample was left in the dark for 45 min. […] The supernatant was diluted to 4 ml with PBS, and 2 ml of PBS containing 100 μl of 50% streptavidin-agarose resin (Thermo Scientific) was added. Biotinylated proteins within the sample were captured over resin overnight at 4 °C with mild agitation. The resin was first washed with 6 ml of 1% SDS in PBS, and then 7 ml of 0.1 M urea in PBS followed by 10 ml of PBS. The resin underwent a final wash with 0.9 ml of 50 mM Tris-HCl and 1 mM CaCl2 in water (pH 8.0) and then resuspended in 200 μl of 50 mM Tris-HCl, 1 mM CaCl2 in water (pH 8.0), and 2 μg of porcine sequencing grade trypsin (Promega). Samples were digested overnight at 37 °C. Samples were then centrifuged at 2,000 × g for 4 min, and digest supernatant was decanted. Beads were washed in 100 μl of PBS centrifuged at 5,200 × g for 5 min, and the wash was combined with the digest supernatant. To the combined sample, trifluoroacetic acid (TFA) was added to 0.4% (v/v) or until pH <2. The sample was desalted with Oasis C18 10-mg columns (Waters) as described previously ([66]). The eluted sample was dried by speed vac and resuspended in 0.1 M HEPES buffer (pH 8.5). […] Appropriate corresponding TMTsixplex^TM-labeled samples were pooled and dried by speed vac. The combined samples were resuspended in 0.5% acetic acid in water and pH-corrected with acetic acid until pH was <2. 40 μg of protein was desalted with C18 stage tips prepared in-house and dried by speed vac.
# Samples were resuspended in 10 mM KH2PO4 (pH 2.6), 30% acetonitrile (v/v) in water, and fractionated by off-line strong cation exchange chromatography prior to mass spectrometry (MS) analysis similar to as reported previously ([66]). The full synaptosome proteome control was prepared similarly without TMTsixplex^TM labeling.
# All TMT samples were analyzed with three-stage mass spectrometry (MS3) TMTsixplex^TM quantification workflow as described previously ([34]).
# horse spleen apoferritin = target: T1, horse spleen apoferritin (Equus caballus, UniProt P02791); test: Isothermal titration calorimetry binding to apoferritin; settings: one-site model, read-out: KD (95% CI), ITC
# T1 construct: soluble protein model horse spleen apoferritin; from tissue; host or cells: horse spleen
# T1 sequence (P02791 2-175 limits assumed): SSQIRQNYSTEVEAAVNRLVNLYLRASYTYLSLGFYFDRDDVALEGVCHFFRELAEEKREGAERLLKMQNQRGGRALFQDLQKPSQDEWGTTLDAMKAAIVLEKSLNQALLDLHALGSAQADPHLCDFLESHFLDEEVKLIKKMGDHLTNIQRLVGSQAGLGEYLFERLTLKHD
# Procedure: Isothermal titration calorimetry isotherms for binding to soluble protein model horse spleen apoferritin were conducted as reported previously ([31]) and were resolved using a VP-isothermal titration calorimetry microcalorimeter (MicroCal, Inc., Northampton, MA). Origin 5.0 software was used to best-fit thermodynamic parameters to the heat profiles.
# [2] = tested on: alkylphenol-binding proteins within synaptosomes; test: Fluorescent profiling: protection from AziPm-click (1) photolabeling of synaptosomes; set-up: species or system mouse; settings: propofol 75–375 μM; ketamine 150–450 μM; triplicate
# Procedure: as §1
# GABAA receptor subunits = test: Western blotting of streptavidin-captured GABAA receptor subunits with ligand protection; assay type: binding, mouse; settings: AziPm-click (1) 10 μM, protecting ligand 100 μM, UV irradiation; n = 4
# Procedure: as §1
# as §2, with “Both liquid layers were carefully removed, and the protein pellet was washed with 2 ml of 1:1 (v/v) chilled methanol/chloroform. Samples were centrifuged at 3,500 × g for 30 min at 4 °C. Protein pellets were briefly air-dried before further processing.” left out
# [3] = protein A2AI17 Glutamate receptor ionotropic, NMDA 1 (Grin1)
# [4] = protein P70429-2 Isoform 1 of Ena/VASP-like protein (Evl)
# [5] = protein P97300-3 Isoform 3 of Neuroplastin (Nptn)
# [6] = protein Q8BJU0-2 Isoform 2 of Small glutamine-rich tetratricopeptide repeat-containing protein alpha (Sgta)
# [7] = protein Q9DBF1-2 Isoform 2 of Alpha-aminoadipic semialdehyde dehydrogenase (Aldh7a1)
# [8] = protein Q9EPJ9-2 Isoform 2 of ADP-ribosylation factor GTPase-activating protein 1 (Arfgap1)
# [9] = protein Q8CFX3 Protein Pcdh1 (Pcdh1)
compound,measurement,setting,value
"C#CCOCc1ccc(C2(C(F)(F)F)N=N2)cc1O [AziPm-click (1), 2-((prop-2-yn-1-yloxy)methyl)-5-(3-(trifluoromethyl)-3H-diazirin-3-yl)phenol]",immobility after drug washout,X. laevis tadpoles,prolonged immobility after drug washout
same,half-life (t½) of time-dependent photoreactivity,[1],25 min
same,TMT Ratio Mean 'UV/ No UV',synaptosomal proteome; O35633-2 Slc32a1,20.27
same,TMT Ratio Mean 'UV/ No UV',synaptosomal proteome; P60879-2 Snap25,23.67
same,Log2( Mean 'UV/ No UV'),synaptosomal proteome; [3],3.36
same,TMT Ratio Mean 'UV/ No UV',synaptosomal proteome; [3],10.28
same,TMT Ratio Mean 'UV/ No UV',synaptosomal proteome; protein P23819-4 Isoform 4 of Glutamate receptor 2 (Gria2),12.58
same,TMT Ratio Mean 'UV/ No UV',synaptosomal proteome; [4],19.89
same,TMT Ratio Mean 'UV/ No UV',synaptosomal proteome; [5],12.71
same,TMT Ratio Mean 'UV/ No UV',synaptosomal proteome; [6],15.19
same,TMT Ratio Mean 'UV/ No UV',synaptosomal proteome; [7],14.82
same,TMT Ratio Mean 'UV/ No UV',synaptosomal proteome; [8],10.88
same,Kd,horse spleen apoferritin,22 µM
"CC(C)c1cccc(C(C)C)c1O [propofol, 2,6-diisopropylphenol, reference compound]",fluorescent labeling of synaptosomal proteins by AziPm-click (1) in presence of protecting ligand,[2],decreased
same,protection of GABAA receptor α and β subunits from AziPm-click (1) capture,GABAA receptor subunits,significant decreases in capture efficiency
same,Log2( Mean 'UV/ UV+propofol'),synaptosomal proteome; O35633-2 Slc32a1,1.24
same,% propofol protection,synaptosomal proteome; Q8BKX1-4 Baiap2,71%
same,Log2( Mean 'UV/ UV+propofol'),synaptosomal proteome; Q8BKX1-4 Baiap2,1.77
same,% propofol protection,synaptosomal proteome; Q8VDQ8-2 Sirt2,71%
same,Log2( Mean 'UV/ UV+propofol'),synaptosomal proteome; Q8VDQ8-2 Sirt2,1.61
same,decrease in enrichment factor with propofol protection,"synaptosomal proteome; five GABAA receptor subunits (α1,3 and β1–3), enrichment factor = mean (+)UV/(−)UV TMT ratio",at least 10
same,% propofol protection,synaptosomal proteome; [3],57%
same,Log2( Mean 'UV/ UV+propofol'),synaptosomal proteome; [3],1.07
same,% propofol protection,synaptosomal proteome; [4],56%
same,Log2( Mean 'UV/ UV+propofol'),synaptosomal proteome; [4],1.14
same,Log2( Mean 'UV/ UV+propofol'),synaptosomal proteome; [5],1.17
same,% propofol protection,synaptosomal proteome; [6],56%
same,Log2( Mean 'UV/ UV+propofol'),synaptosomal proteome; [6],1.02
same,% propofol protection,synaptosomal proteome; [9],50%
same,Log2( Mean 'UV/ UV+propofol'),synaptosomal proteome; [9],0.87
same,% propofol protection,synaptosomal proteome; [7],52%
same,Log2( Mean 'UV/ UV+propofol'),synaptosomal proteome; [7],0.94
same,% propofol protection,synaptosomal proteome; [8],56%
same,Log2( Mean 'UV/ UV+propofol'),synaptosomal proteome; [8],1.06
same,Kd,horse spleen apoferritin,9 µM
